Results taken from patent US20080226639A1, “Heparin Binding Peptide” (Enkan Pharmaceuticals A/S, priority 2004, published 2008).
Residues, ends and D or L forms follow the SMILES beside them.

Key:
[1] = tested on: rat cerebella granular neurons (CGNs); assay: Neurite outgrowth of CGNs in co-culture with fibroblasts with or without NCAM expression; format: cell-based; settings: for neurite outgrowth of CGNs grown on fibroblasts without NCAM expression: CGNs on control fibroblasts without NCAM expression; for neurite outgrowth of CGNs grown on fibroblasts without NCAM expression / neurite outgrowth of CGNs grown on fibroblasts expressing NCAM: 24 h co-culture, different peptide concentrations (FIG. 1); for neurite outgrowth of CGNs grown on fibroblasts expressing NCAM: CGNs on monolayers of NCAM expressing fibroblasts
Description: Genetically modified fibroblasts (mouse fibroblastoid L-cells) with or without NCAM expression are seeded in eight-well LabTek tissue culture chamber slides (Nunc, Roskilde, Denmark) at a density 7×10^4 of cells/well and maintained at 37° C. and 5% CO2 in DMEM with 10% HS, 100 U/ml penicillin and 100 μg/ml streptomycin. 24 h after plating the medium is removed and CGNs (10^4 cells/well) are seeded on monolayers of fibroblasts with or without NCAM expression in Neurobasal-A medium containing 100 U/ml penicillin, 100 μg/ml streptomycin, 1% glutamax and supplemented with B27, and grown in co-culture for 24 hours, afterwards neurite outgrowth is measured. CGNs are prepared from postnatal day 3-4 rat pups according to Rønn, L. C., Doherty, P., Holm, A., Berezin, V., Bock, E. (2000). J. Neurochem. 75(2):665-71.

[2] = tested on: primary cerebellar granule neurons (CGNs); assay: Neurite outgrowth in primary culture of single CGNs; format: cell-based, rat; settings: single CGNs (FIG. 3); for maximal effect on neurite outgrowth: peptide immobilized on tissue culture plastic, coating concentration of 5 μg/ml
Description: Primary cerebellar granule neurons (CGNs) are prepared from postnatal day 3-4 rat pups according to Rønn, L. C., Doherty, P., Holm, A., Berezin, V., Bock, E. (2000). J. Neurochem. 75(2):665-71. Dissociated cerebella cells are grown at 37° C. and 5% CO2 in Neurobasal-A medium containing 20 mM Hepes, 100 U/ml penicillin, 100 μg/ml streptomycin, 1% glutamax and supplemented with B27 (all from Gibco BRL). For testing the effect of the peptides, CGNs are seeded in eight-well LabTech tissue chamber slides with a growth surface of Permanox plastic (Nunc) at a density of 10^4 cells/well in Neurobasal-A medium containing 100 U/ml penicillin, 100 μg/ml streptomycin, 1% glutamax and supplemented with B27. When treated with Heparinase III (1 U/ml), the enzyme is added to the culture medium immediately after plating. CGNs are treated with the enzyme for 1 h before addition of different concentrations (1 μg/ml, 5 μg/ml, and 20 μg/ml) of the peptides. After 24 h of culture, cells are fixed with paraformaldehyde, immunostained with primary mouse antibodies against CD90 (Thy-1) (1:200) (Caltag Laboratories, USA) (PC12-E2 cells) or GAP-43 (1:1000) (Chemicon, USA) (CGNs) and secondary Alexa Fluor®488 goat antibody against mouse IgG (1:1000) (Molecular Probes, Netherlands), and the length of neurites is measured by a stereological method as previously described (Ronn, L. C., Ralets, I., Hartz, B. P., Bech, M., Berezin, A., Berezin, V., Møller, A., Bock, E (2000). J Neurosci Methods. 100(1-2), 25-32).

[3] = tested on: fibroblasts with or without NCAM expression (mouse fibroblastoid L-cells); assay: Random cell motility of fibroblasts, time-lapse video-recording; format: cell-based; settings: both NCAM expressing fibroblasts and control fibroblasts (FIG. 5)
Description: For evaluation the effect of the peptides on cell motility, confluent cultures of fibroblasts with or without NCAM expression are dislodged with 0.5 mg/ml of trypsin and 0.75 mM EDTA in a modified Puck's saline (Gibco BRL), seeded in six-well tissue culture plates (Nunc) at a density of 4×10^3 cells/cm^2 and grown for 24 h at 37° C. and at 5% CO2.
Random cell motility was evaluated by use of time-lapse video-recording and image analysis as described previously (Walmod, et al. (1998). Cell Motil Cytoskeleton. 40(3), 220-37). […]
Evaluation of cell motility and morphology is performed using the image processing software PRIMA. The positions of individual cells are determined by manual marking of the centers of the nuclei. […] The parameters of mean squared cell speed (Sτ), rate of diffusion (R), and locomotive index (LI) are determined according to Walmod, et al. (2000) (Methods Mol. Biology. 161, 59-83) as described below.
The displacement of a cell is the Euclidean distance between two points corresponding to the initial and final positions of the cell. […] The mean squared cell displacement of a cellular population after a given time (t1) of observation was calculated as […]
where P is the persistence time in direction (23). The mean cell speed, Sτ, was calculated as the ratio of the mean displacement of cells (<dτ>) to the time interval τ. […]

[4] = molecular target: T1, recombinant Trk B receptor (Homo sapiens, UniProt Q16620); assay: BIAcore binding analysis to Trk B receptor; settings: HBP or Ig2 module immobilized on sensor chip CM5, Trk B injected, 25° C., pH 7.4 (FIG. 7)
T1 construct: purchased RD Systems (USA)
T1 sequence (Q16620 32-822): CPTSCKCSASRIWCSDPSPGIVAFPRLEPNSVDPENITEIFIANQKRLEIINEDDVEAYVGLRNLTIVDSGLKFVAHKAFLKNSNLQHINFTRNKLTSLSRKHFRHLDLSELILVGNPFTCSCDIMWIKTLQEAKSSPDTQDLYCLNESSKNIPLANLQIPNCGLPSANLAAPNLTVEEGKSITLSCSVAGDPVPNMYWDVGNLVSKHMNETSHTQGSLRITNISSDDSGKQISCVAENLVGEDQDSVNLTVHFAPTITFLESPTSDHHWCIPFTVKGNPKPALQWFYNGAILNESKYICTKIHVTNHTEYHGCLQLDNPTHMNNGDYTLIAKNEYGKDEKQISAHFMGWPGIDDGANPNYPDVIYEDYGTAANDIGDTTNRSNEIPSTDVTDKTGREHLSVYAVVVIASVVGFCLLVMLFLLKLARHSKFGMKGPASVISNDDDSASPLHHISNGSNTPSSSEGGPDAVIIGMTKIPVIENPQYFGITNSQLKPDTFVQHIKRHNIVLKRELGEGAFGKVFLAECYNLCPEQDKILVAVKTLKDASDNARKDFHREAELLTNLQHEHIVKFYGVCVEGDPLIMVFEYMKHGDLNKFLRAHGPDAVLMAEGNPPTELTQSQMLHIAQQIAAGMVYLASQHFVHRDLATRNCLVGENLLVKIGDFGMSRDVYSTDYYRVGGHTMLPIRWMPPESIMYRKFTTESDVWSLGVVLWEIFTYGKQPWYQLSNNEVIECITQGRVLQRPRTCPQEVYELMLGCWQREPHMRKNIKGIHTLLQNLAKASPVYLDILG
Description: Recombinant the Ig2 module of NCAM was prepared using in the yeast P. pastoris expression system (Invitrogen, USA) as previously described (Kiselyov et al., Biol. Chem. 272, 10125-10134, 1997). Recombinant Trk B receptor was purchased from RD Systems (USA).
Binding analysis was performed using a BIAcoreX instrument (Biosensor AB) at 25° C. using 10 mM sodium phosphate pH 7.4, 150 mM NaCl as running buffer. The flow-rate was 5 μl/min. Data were analysed by non-linear curve-fitting using the manufacture's software. The HBP or recombinant Ig 2 module of NCAM were immobilized on a sensor chip CM5 using amine coupling kit (Biosensor AB) as follows: 1) the two halves of the chip (designated Fc1 and Fc2) were activated by 20 μl activation solution; 2) the protein was immobilized on Fc1 using 12 μl 20 μg/ml protein in 10 mM sodium phosphate buffer pH 6.0; 3) Fc1 and Fc2 were blocked by 35 μl blocking solution. Binding of Trk B to the immobilized HBP or the Ig module II of NCAM was studied as follows: Trk B was injected simultaneously into Fc1 (with the immobilized HBP or Ig module II of NCAM) and Fc2 (with nothing immobilized). The curve representing unspecific binding of the compound to the surface of Fc2 was subtracted from the curve representing binding of Trk B to the immobilized protein (HBP or the Ig 2 module of NCAM) and the surface of Fc1. […]

| Molecule | neurite outgrowth of CGNs grown on fibroblasts without NCAM expression [1] | neurite outgrowth of CGNs grown on fibroblasts expressing NCAM [1] | neuritogenic effect on CGNs grown on control fibroblasts under treatment with SU5402 (FGFR inhibitor) ([1]; control fibroblasts without NCAM expression, plus SU5402 (FIG. 2)) | change of the neurite outgrowth effect by treatment with heparinase III ([2]; heparinase III 1 U/ml) | maximal effect on neurite outgrowth [2] [%] | cell motility: rate of diffusion (R), mean cell speed (Sτ), locomotive index (LI) [3] | effect on NCAM mediated neurite outgrowth in co-cultures of CGNs with NCAM expressing fibroblasts, in the presence of HBP ([1]; NCAM expressing fibroblasts, HBP present (FIG. 2)) | effect on NCAM mediated neurite outgrowth in the absence of HBP ([1]; NCAM expressing fibroblasts, no HBP (FIG. 2)) | Kd [4] [nM] |
| --- | --- | --- | --- | --- | --- | --- | --- | --- | --- |
| CC[C@H](C)[C@H](NC(=O)[C@H](Cc1ccccc1)NC(=O)[C@H](CCCNC(=N)N)NC(=O)[C@@H](NC(=O)[C@H](CC(=O)O)NC(=O)[C@H](CCCCN)NC(=O)[C@H](CCCCN)NC(=O)[C@H](CC(C)C)NC(=O)[C@@H](NC(=O)[C@@H](NC(=O)[C@H](CC(=O)O)NC(=O)[C@H](CCCNC(=N)N)NC(=O)CNC(=O)[C@@H](N)CCCCN)C(C)C)[C@@H](C)CC)C(C)C)C(N)=O [HBP, KGRDVILKKDVRFI] (H-KGRDVILKKDVRFI-NH2; N-terminus and C-terminus assumed) | in a dose-dependent manner increases neurite outgrowth | in a dose-dependent manner increases neurite outgrowth | is not blocked by treatment with SU5402 | reduced the effect of HBP | 680 | clear inhibition of cell motility |  |  |  |
| Cc1c[nH]c(/C=C2\C(=O)Nc3ccccc32)c1CCC(=O)O [SU5402, reference compound] |  |  |  |  |  |  | only partially inhibited | blocks NCAM mediated neurite outgrowth |  |
| KGRDVILAKDVRVI (HBP mutant (peptide M)) [HBP mutant, Lys-161 and Phe-166 substituted for Ala and Val] | still stimulates neurite outgrowth | does not affect the neurite outgrowth response |  |  | 400 | inhibitory effect on the motile behaviour of fibroblasts similar to the effect of HBP |  |  |  |
| Ig 2 module of NCAM: recombinant Ig2 module of NCAM prepared in the yeast P. pastoris expression system (protein) KLMFKNAPTPQEFKEGEDAVIVCDVVSSLPPTIIWKHKGRDVILKKDVRFIVLSNNYLQIRGIKKTDEGTYRCEGRILARGEINFKDIQVIVNV |  |  |  |  |  |  |  |  | 1 to 10 |
